Entries after “also recorded” stand apart in the source; their conditions may differ. Read-outs that look alike come from different tables or passages of the source.
Assays:
[1] = system: renal progenitor cells; assay: In situ hybridization for lhx1a expression in 10-somite embryos (renal progenitor cell expansion); type: in vivo; conditions: for Lhx1a expansion caused by analog treatment, 800 nM: 800 nM from 2 hpf; for EC50: first pass EC50 from percent expansion (Excel trendline), average where several experiments; for Lhx1a expansion caused by analog treatment, 3 μM: key: effective (+); partially effective (+/−); ineffective (−); Analogs that killed all embryos at a given concentration before reaching 10 somites are listed as XX; for Lhx1a expansion caused by analog treatment, 400 nM: key: effective (+); partially effective (+/−); ineffective (−); Analogs that killed all embryos at a given concentration before reaching 10 somites are listed as XX; for Lhx1a expansion caused by analog treatment, 800 nM: key: effective (+); partially effective (+/−); ineffective (−); Analogs that killed all embryos at a given concentration before reaching 10 somites are listed as XX
Procedure, shortened: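 Zebrafish embryos treated with compound, then colorimetric whole-mount in situ hybridization (65° C) for lhx1a mRNA at 10 somites. Embryos with expanded kidney field counted manually as percent of total. EC50 taken as 50% point of percent-expansion trendline; compounds also classed effective, partial or ineffective versus PTBA at matched concentration.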

[2] = system: histone H4; assay: Histone H4 hyperacetylation Western blot in treated embryos; type: in vivo, zebrafish; conditions: 24 hpf embryos, 6 hours; 3 μM PTBA, 25 μM PBA, 200 nM TSA
Experimental: It was next determined whether the HDACi function of PTBA was quantifiable in vivo. 24 hpf embryos were treated with 3 μM PTBA, 25 μM PBA, or 200 nM TSA for 6 hours. Protein extracts were prepared and immunoblotted with an anti-hyperacetylated histone H4 antibody. […] Furthermore, increasing the compound concentration caused a corresponding increase in hyperacetylation (FIG. 21).
SDS-PAGE and Western blotting were performed as described previously with some modifications (Noel, E. S. et al. Organ-specific requirements for Hdac1 in liver and pancreas formation. Dev Biol 322, 237-250, (2008)). Proteins were separated on 18% SDS-PAGE gels. Membranes were incubated at 4° C. overnight with 1:1000 anti-hyperacetylated histone H4 antibody (06-946, Millipore) or 1:1000 anti-α-tubulin antibody (Sigma-Aldrich) in PBT containing 5% nonfat milk.

[3] = system: HDAC; conditions: 5 mM; cited from earlier work
[4] = system: zebrafish embryos; assay: Phenotypic screen for edema and survival in zebrafish larvae at 72 hpf; conditions: for Dead / Edemic 1 (E1) / Edemic 2 (E2) / Edemic 3 (E3) / Wild-type (WT): number of larvae (of 36), 3 μM from 2 hpf, scored at 72 hpf
Procedure, shortened: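 Embryos (5/well in primary screen; 12–30 per group otherwise) exposed from 2 hpf in E3 medium with 0.5% DMSO, 10 μM in screen or stated concentrations, 28.5 °C for 70 h. At 72 hpf, edema scored by phenotype classification (dominant phenotype in ≥4/5 embryos in screen); survival vs 0 μM by two-tailed Fisher's exact test (p<0.05).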

[5] = system: human HDACs; assay: Fluorescence histone deacetylation assay with HeLa cell nuclear extract; type: biochemical; conditions: 5 mM compound
Experimental: To evaluate this in vitro, the deacetylation of a fluorescent peptide substrate was measured in the presence of human HDACs.
In vitro HDAC activity assays were performed using a fluorescence HDAC assay kit (Active Motif) according to the manufacturer's instructions. For maintaining compound solubility at 5 mM, the final DMSO concentration in all assay wells was increased to 5%. Fluorescence was detected using an M5 Plate Reader ([…])

[6] = system: proximal convoluted tubule cells; assay: Renal cell proliferation post gentamycin-induced AKI in zebrafish larvae; type: in vivo; conditions: 4 μM added 2 days post injection of gentamicin, EdU at 5 days post injection
Experimental: FIG. 43A is a graph showing the results of an AKI model using gentamycin-induced injury. AKI is generated as per a recent publication, Cianciolo Cosenitino, C., et al. ((2010) Intravenous microinjections of zebrafish larvae to study acute kidney injury. JoVE August 4 (42), pii: 2079. doi: 10.3791/2079). Four micromolar m4PTB (UPHD-00025) was added to the zebrafish E3 media in 0.5% DMSO at 2 days post injection of gentamicin and the larvae are scored daily for four days (6 days post injection) as alive or dead, with the final data tallied on day 6 post injection FIG. 43B.
Proliferation of renal cells was examined post AKI for m4PTB in zebrafish larvae (FIG. 44). AKI is generated as above with gentamycin, essentially as described in Example 11. Four μM m4PTB was added 2 days post injection of gentamicin. Zebrafish larvae at 5 days post injection were treated for 1 hour with the thymidine analogue EdU (10 milimolar), which incorporates into dividing (proliferating cells) while the larvae are in the zebrafish E3 media. The larvae where then fixed and processed for histology to count the number of proliferating cells in the proximal convulted tubule (as marked by the antibody 3G8). The number of proliferating cells was divided by the total number of cells in the proximal convoluted tubule to generate the percent of proliferation also known as the proliferation index as shown in FIG. 44.

[7] = system: Acetylated Histone H3 K9; assay: Renal histone acetylation after single S/C injection in CD1 mice; type: in vivo, mouse; conditions: 3.4 mg/kg single SC injection, 24 hours
Experimental: PTBA analogs are used at a dose range determined from comparative dose efficacy with m4PTB in the secondary zebrafish screen. […] Preliminary studies compared the effect of Trichostatin A (an established, but toxic HDACi) at an effective dose in the zebrafish screen ([…]) with an equivalent dose of m4PTB (0.8 mM), and then ×2 and ×4 dose increments (molar concentration in vivo based on estimate uniform distribution relative to body mass of water). […] Studies may be performed on 3 mice/group.

[8] = system: CD1 mice; assay: Folic acid-induced AKI in CD1 mice; type: in vivo, mouse; conditions: daily IP from 24 hrs after folic acid, 15 days
Experimental: FIG. 42 are photomicrographs showing the results of an AKI model using folic acid-induced injury. Folic acid is administered to CD1 mice (n=6/group) intraperitoneally (IP) at […] in 0.3M NaHCO3. Compound UPHD-00022 was injected daily IP at […] in 30% PEG300 vehicle starting 24 hrs after folic acid treatment. Kidney tissue was stained using Trichrome and Sirus Red stained after 15 days. Blue in trichrome and the red in sirus red indicates fibrotic (scar) tissue.

[9] = 3 μM from 2 hpf, 10-somite embryos
[10] = 1.5 μM from 2 hpf, 10-somite embryos
[11] = Danio rerio, 1.5 μM from 2 hpf, 10-somite embryos, read-out: lhx1a expansion, percent of treated embryos
[12] = Danio rerio, percent of embryos with expanded kidney field, 1.5 μM, read-out: Expansion of Cells (including repeats* and recounts**) 1.5 μM
[13] = Danio rerio, percent of embryos with expanded kidney field, 3 μM, read-out: Expansion of Cells (including repeats* and recounts**) 3 μM

SMILES | Lhx1a expansion caused by analog treatment, 3 μM [1, 9] | Dead [4] | Edemic 1 (E1) [4] | Edemic 2 (E2) [4] | Edemic 3 (E3) [4] | Wild-type (WT) [4] | Lhx1a expansion caused by analog treatment, 800 nM ([1]; 10-somite embryos) | Lhx1a expansion caused by analog treatment, 1.5 μM [1, 10] | responders at 1.5 µM [1, 11] [%] | responders at 1.5 µM [1, 12] [%] | responders at 3 µM [1, 13] [%] | EC50 ([1]; Danio rerio) [µM] | also measured
O=C(O)CCCc1ccccc1 [PBA, 4-phenylbutanoic acid, reference compound] | − | 0 | 0 | 0 | 0 | 36 |  |  |  |  |  |  | concentration producing an expansion of lhx1a expression consistent with 3 μM PTBA ([1]; concentration-response, 10-somite embryos): 25 µM; histone H4 hyperacetylation [2]: Histone H4 hyperacetylation was observed; HDAC activity, percent of the control value [3]: 19%; larvae with edemic phenotype / pericardial edema by 72 hpf ([4]; 3 μM PTBA, 25 μM PBA, 200 nM TSA): 23%; death by 72 hpf ([4]; 25 μM PBA, 200 nM TSA, n=90): 8%; HDAC activity elicited by 10 μg HeLa extract, percent of the control value [5]: 30%
COC(=O)CCCSc1ccccc1 [UPHD-00025, methyl 4-(phenylsulfanyl)butanoate (m4PTB)] | + | 8 | 0 | 2 | 26 | 0 | +/− | + | 89 | 89 | 97 | 0.432 | responders at 3 µM ([1]; Danio rerio, 3 μM from 2 hpf, 10-somite embryos, read-out: lhx1a expansion, percent of treated embryos): 100%; responders at 0.2 µM ([1]; Danio rerio, percent of embryos with expanded kidney field, 200 nM, read-out: Expansion of Cells (including repeats* and recounts**) 200 nM): 33%; renal cell proliferation (proliferation index) [6]: significantly increased; renal Ac-H3 K9 induction [7]: maximal expression of Ac—H3 K9; also recorded: maximal induction of H3K9A
COC(=O)CCCSc1ccc(OC)cc1 [UPHD-00022, methyl 4-[(4-methoxy-phenyl)sulfanyl]butanoate] | + | 1 | 2 | 24 | 9 | 0 | + | + | 91 | 83 | 85 | 1.4 | Lhx1a expansion caused by analog treatment, 400 nM ([1]; 400 nM from 2 hpf, 10-somite embryos): +/−; responders at 0.8 µM ([1]; Danio rerio, percent of embryos with expanded kidney field, 800 nM, read-out: Expansion of Cells (including repeats* and recounts**) 800 nM): 39%; responders at 0.4 µM ([1]; Danio rerio, read-out: lhx1a expansion, percent of treated embryos, 400 nM from 2 hpf, 10-somite embryos): 29%; responders at 0.8 µM ([1]; Danio rerio, read-out: lhx1a expansion, percent of treated embryos, 800 nM from 2 hpf, 10-somite embryos): 57%; renal fibrosis (Trichrome and Sirus Red) [8]: reduction in fibrosis

Reference: patent US10160705B2, “Class of HDAC inhibitors expands the renal progenitor cells population and improves the rate of recovery from acute kidney injury” (University of Pittsburgh—Of the Commonwealth System of …, priority 2011, dated 2018)
